Key:
[1] = LTI-291-002: CNS (NeuroCart) assessments; format: in vivo, human
Method: This study was a phase 1, randomized, double-blind, placebo-controlled, multiple ascending dose study of Compound A in 4 cohorts of middle-aged to elderly healthy participants (aged 52 to 75 years). […] A total of 39 healthy subjects were enrolled in 4 sequential cohorts. Subjects in each cohort received once-daily oral doses of 3 mg (n=7), 10 mg (n=8), 30 mg (n=8), or 60 mg (n=8) Compound A or placebo (n=8) for 14 days. Pharmacokinetic parameters were determined for each dose at Day 1, Day 7, and Day 14. Cerebrospinal fluid samples for Compound A concentrations were measured before the first dose and 4 hours after the last dose for each dose level. GluCer, glucosyl sphingosine (GluSph), and lactosyl-ceramide (LacCer) were measured in plasma, PBMCs, and CSF as biomarkers of pharmacological effects. Pharmacodynamic measurements consisted of battery of CNS (NeuroCart®) assessments including Saccadic Eye Movements, Smooth Pursuit Eye Movements, Adaptive Tracking, Body Sway, Visual Verbal Learning Test, and pharmaco-EEG.

[2] = tested on: GluCer, GluSph and LacCer in plasma, PBMCs and CSF; assay: LTI-291-003: glycolipid biomarkers; format: in vivo, human; conditions: for GluCer and LacCer in PBMCs: GBA-PD
Method: GluCer, GluSph, and LacCer were measured in plasma, PBMCs, and CSF as biomarkers of pharmacological effects. The pharmacodynamic evaluations also consisted of a battery of NeuroCart assessments (Saccadic Eye Movements, Smooth Pursuit Eye Movements, Adaptive Tracking, Body Sway, and Visual Verbal Learning Test); functional outcome measures (MDS-UPDRS Part III, and the MMSE); and pharmaco-EEG.

GCase = target: T1, GCase (Homo sapiens, UniProt P04062); assay: In vitro GCase brain homogenate activity assay superimposed on estimated human brain Cb,min,ss; format: biochemical; conditions: for minimum GCase activity in GBA-PD patients: brain Cmin at steady state (Cb,min,ss), estimated
T1 construct: brain homogenate (5 μg/well) as enzyme source; from tissue; host or cells: human brain homogenate
T1 sequence (P04062 40-536): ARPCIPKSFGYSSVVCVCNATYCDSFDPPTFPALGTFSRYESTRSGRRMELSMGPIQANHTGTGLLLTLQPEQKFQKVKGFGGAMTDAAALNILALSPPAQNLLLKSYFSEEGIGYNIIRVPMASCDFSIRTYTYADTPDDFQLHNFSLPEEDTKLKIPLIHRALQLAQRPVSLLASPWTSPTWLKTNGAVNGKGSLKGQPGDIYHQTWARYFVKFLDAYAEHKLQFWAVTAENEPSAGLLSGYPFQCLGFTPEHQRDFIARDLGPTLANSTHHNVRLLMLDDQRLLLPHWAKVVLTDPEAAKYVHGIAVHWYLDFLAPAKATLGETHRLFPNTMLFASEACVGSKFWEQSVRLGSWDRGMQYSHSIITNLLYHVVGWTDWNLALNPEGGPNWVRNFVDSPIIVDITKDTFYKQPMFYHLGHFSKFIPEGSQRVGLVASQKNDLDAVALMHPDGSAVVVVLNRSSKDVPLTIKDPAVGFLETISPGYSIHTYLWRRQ
Description: The in vitro measurement of GCase activity in human brain homogenates was used to correlate the exposure and GCase activity and to estimate the increase in GCase activity in the brain of GBA-PD patients at Cmin at steady state (Cb,min,ss) across different dose levels. The relationship between concentration observed in brain and CSF in rat was used to obtain the brain concentrations of Compound A in humans, assuming the same relationship conserved among mammalian species. The range of human estimated Cb,min,ss were superimposed to the corresponding concentration from in vitro study with human brain homogenates to obtain the GCase activation by Compound A.
The activity of Compound A in the GCase assay was determined using 4-MUG (1 mM) as substrate and brain homogenate (5 μg/well) as enzyme source.
A 500 μl aliquot of a 1.0 mg/ml solution of phosphatidylserine (PS, Sigma P7769) in chloroform was evaporated under a stream of nitrogen for 1 hour. The lipid film was dissolved with 4 minutes of vigorous vortexing in 41 ml of 176 mM K2HPO4/50 mM citric acid pH 4.7 containing 7.7 μl of triton X-100, resulting in a mixed micellar preparation with a composition of 0.32 mM triton and 4.6 mol % PS.
4-methylumbelliferyl-beta-D-glucopyranoside (4-MUG, ACROS-337025000) was dissolved in the micellar solution to a final concentration of 2 mM for use as the reaction substrate. The micellar/homogenate solution was prepared by adding 3.2 ml Triton X-100/phosphotidylserine mixed micelles containing 400 μg/mL brain homogenate. A 1.6 mL portion of this mixture received 32 μl conduritol B epoxide (CBE, 100 mM stock in DMSO) for final concentration of 2 mM CBE. The remaining 1.6 mL portion received 32 μl DMSO as solvent control. Compound A was diluted with DMSO from a 10 mM stock to the desired assay concentrations, and 0.45 μl of compound in DMSO was added to 75 μl of micellar/homogenate solution (+/−CBE).
After a 30 minute pre-incubation at room temperature, the reaction was initiated by combining 25 μl of substrate solution with 25 μl of compound/GCase/homogenate mixture. The reaction proceeded for 30 minutes at room temperature for Rat, Cyno and Dog brain homogenates, 60 minutes for Mouse and Human brain homogenate. The reaction was stopped by adding 150 μl of 1M glycine, pH 12.5. The endpoint fluorescence intensity of the reaction was measured at excitation 365 nm, emission 440 nm on a SpectraMax i3 instrument (Molecular Devices). Compound activity was expressed relative to a DMSO control. […]
An API4000 mass spectrometer equipped with a turbo ion spray source was used for detection in positive ion mode. Quantification was based on multiple reaction monitoring (MRM) of the transitions of m/z 359.2-174.2 for LTI-291 and m/z 365.3-180.2 for its internal standard. […]

CCCCCO[C@H]1CC[C@H](NC(=O)c2cnn3c(C)cc(C)nc23)CC1 [Compound A, 5,7-dimethyl-N-((1S*,4S)-4-(pentyloxy)cyclohexyl)pyrazolo[1,5-a]pyrimidine-3-carboxamide]
EEG Alpha-power Pz-Oz, eyes closed ([1]; 3 mg vs placebo): significant decrease | effects on CNS (Neurocart) tests ([1]; 3-60 mg daily for 14 days): no dose-dependent effects | saccadic inaccuracy ([1]; 10 and 30 mg groups vs placebo): significant increase | saccadic peak velocity or reaction time ([1]; vs placebo): No changes | GluCer and LacCer in PBMCs ([2]; 7 and 14 days of treatment): statistically significant increase | dose-response or exposure-response of PBMC glycolipid effects ([2]; 10, 30, 60 mg/day): no obvious dose-response or exposure response relationship | plasma or CSF levels of glycolipids ([2]; 28 days): no obvious changes | GluCer and LacCer in PBMCs ([2]; 28 days of treatment): smaller increase | PBMC glycolipid effects by severity of GBA1 mutation ([2]; Gaucher or major vs polymorphism GBA1 mutations): generally greater | Intracellular GluSph in PBMCs ([2]; vs placebo): did not show a clear response | minimum GCase activity in GBA-PD patients (GCase; 10 mg): 69.7-123% | minimum GCase activity relative to effective GCase activity (GCase; 10 mg, dosing interval 24 h): approximately 2 times | minimum GCase activity in GBA-PD patients (GCase; 30 mg): 163-306% | minimum GCase activity in GBA-PD patients (GCase; 60 mg): 255-376%
